{
  "source": "paper PMC6232849",
  "about": "(European journal of medicinal chemistry, 2018)",
  "key": {"[1]": {"test_system": "NF54 strain of P. falciparum", "experiment": "parasite growth inhibition, chloroquine-sensitive NF54 strain cultured in vitro", "type": "cell-based, Plasmodium falciparum"}, "[2]": {"test_system": "β-hematin formation", "type": "biochemical", "conditions": "for IC50: read-out: β-hematin inhibition IC50, NP-40 detergent mediated assay"}, "[3]": {"test_system": "Dd2 strain of P. falciparum", "experiment": "parasite growth inhibition, chloroquine-resistant Dd2 strain", "type": "cell-based, Plasmodium falciparum"}, "[4]": {"test_system": "hemozoin formation in NF54 strain of P. falciparum", "experiment": "cellular heme fractionation assay", "type": "cell-based, Plasmodium falciparum", "conditions": "NF54, 32 h incubation, drug added to early ring stage parasites"}, "[5]": {"test_system": "Chinese hamster ovarian, CHO, cells", "experiment": "cytotoxicity against mammalian cells", "type": "cell-based"}, "[6]": {"conditions": "read-out: NF54 malaria parasite growth inhibition IC50, chloroquine-sensitive NF54 strain, LDH method of Makler et al"}},
  "note": "Like-named read-outs stand apart in the source and are kept apart here.",
  "data": [
    {"molecule": "O=C(Nc1ccc(-c2nc3ccccc3[nH]2)cc1)c1ccccc1", "note": "[Compound 2]", "values": [
      {"measurement": "parasite growth inhibition activity (in words)", "setting": "[1]", "value": "virtually inactive"},
      {"measurement": "β-hematin inhibition activity (in words)", "setting": "[2]", "value": "virtually inactive"}
    ]},
    {"molecule": "CCN(CC)CCCC(C)Nc1ccnc2cc(Cl)ccc12", "note": "(stereo not drawn) [Chloroquine, reference compound]", "values": [
      {"measurement": "IC50", "setting": "[1]; Plasmodium falciparum, NF54, read-out: IC50 NF54", "value": "16 ± 6", "unit": "nM"},
      {"measurement": "IC50", "setting": "[1]; Plasmodium falciparum, NF54, read-out: NF54 malaria parasite growth inhibition IC50", "value": "16 ± 6", "unit": "nM"},
      {"measurement": "IC50", "setting": "[3]; Plasmodium falciparum, DD2, read-out: IC50 Dd2", "value": "150 ± 30", "unit": "nM"}
    ]},
    {"molecule": "O=C(Nc1ccc(-c2nc3ccccc3[nH]2)cc1)c1cc(Cl)nc(Cl)c1", "note": "[Compound 12, N-(4-(1H-Benzo[d]imidazole-2-yl)phenyl)-2,6-dichloroisonicotinamide]", "values": [
      {"measurement": "parasite growth inhibition activity (in words)", "setting": "[1]", "value": "sub-micromolar"}
    ]},
    {"molecule": "O=C(Nc1ccc(-c2nc3ccccc3[nH]2)cc1)c1cncc(Br)c1", "note": "[Compound 5, N-(4-(1H-Benzo[d]imidazole-2-yl)phenyl)-5-bromonicotinamide]", "values": [
      {"measurement": "change in freely exchangeable heme in the parasite cell", "setting": "[4]", "value": "corresponding increase"},
      {"measurement": "change in hemozoin in the parasite cell", "setting": "[4]", "value": "large decrease"},
      {"measurement": "change in undigested hemoglobin in the parasite cell", "setting": "[4]", "value": "much smaller (non-significant) increase"},
      {"measurement": "parasite growth inhibition activity (in words)", "setting": "[1]", "value": "sub-micromolar"}
    ]},
    {"molecule": "O=C(Nc1ccc(-c2nc3ccccc3n2C(=O)c2ccccc2)cc1)c1cccc(Br)c1", "note": "[Compound 26, N-(4-(1H-Benzoyl-benzo[d]imidazole-2-yl)phenyl)-3-bromobenzamide]", "values": [
      {"measurement": "IC50", "setting": "[1]; [6]", "value": "2600 ± 600", "unit": "nM"},
      {"measurement": "IC50", "setting": "[2]", "value": "15.6 ± 0.5", "unit": "µM"}
    ]},
    {"molecule": "N-(4-(1H-Benzo[d]imidazole-2-yl)phenyl)-3-(trifluoromethyl)nicotinamide [Compound 9]", "values": [
      {"measurement": "SI (Dd2) (Selectivity index = IC50 (CHO)/IC50 (Dd2))", "setting": "[5]; CHO versus Dd2", "value": 32},
      {"measurement": "SI (NF54) (Selectivity index = IC50 (CHO)/IC50 (NF54))", "setting": "[5]; CHO versus NF54", "value": 44},
      {"measurement": "IC50", "setting": "[5]; read-out: IC50 CHO, cytotoxicity in CHO cells", "value": "35 ± 4", "unit": "µM"},
      {"measurement": "parasite growth inhibition activity (in words)", "setting": "[1]", "value": "sub-micromolar"},
      {"measurement": "IC50", "setting": "[1]; read-out: IC50 NF54, chloroquine-sensitive NF54 strain (Table 2)", "value": "800 ± 500", "unit": "nM"},
      {"measurement": "IC50", "setting": "[1]; [6]", "value": "800 ± 500", "unit": "nM"},
      {"measurement": "RI (Resistance index = IC50 (Dd2)/IC50 (NF54))", "setting": "[3]; Dd2 versus NF54", "value": 1.4},
      {"measurement": "IC50", "setting": "[3]; read-out: IC50 Dd2, chloroquine-resistant Dd2 strain", "value": "1100 ± 370", "unit": "nM"},
      {"measurement": "IC50", "setting": "[2]", "value": "16.6 ± 0.3", "unit": "µM"}
    ]}
  ]
}
